Measured values from US10173999B2, “Cyclic amine derivative and pharmaceutical use thereof” (Toray Industries, Inc., priority 2015, dated 2019).
Counter-ions that a name gives are not always drawn.

Test: Stability test in mouse liver microsomes
Format: in vitro ADME
Conditions: pH 7.4; mouse liver microsomes 0.5 mg/mL, test compound 2 μmol/L, 37° C., 0-30 min; read-out: Hepatic intrinsic clearance, Mouse
Experimental: Experiment was performed using the compound of Example 11, Comparative Example 1 or Comparative Example 6 as a test compound and human liver microsomes (from Xenotech), monkey liver microsomes (from Xenotech), dog liver microsomes (from Xenotech) or mouse liver microsomes (from Xenotech) as the liver microsomes.
The reagents to be used in the stability test in liver microsomes were prepared as follows. A D-glucose 6-phosphate disodium salt (hereinafter referred to as G6P) was dissolved with distilled water to prepare an aqueous solution of G6P (100 mmol/L). Glucose 6-phosphate dehydrogenase (1000 units) from Yeast (hereinafter referred to as G6PDH) was dissolved with distilled water (5 mL) to prepare an aqueous solution of G6PDH (200 units/mL). MgCl2 was dissolved with distilled water to prepare an aqueous solution of MgCl2 (100 mmol/L). […]
With respect to the chromatogram of each well obtained by LC/MS analysis or LC/MS/MS analysis, the test compound residual ratio (%) at each reaction time t (min) was calculated based on the peak area at the reaction time of 0 minute as 100%. […]

Row | Structure (SMILES) | microsomal CLint at 2 μmol/L [µL/min/mg]
1 | CN(C)C1CCN(C(=O)C[C@H](O)c2nccn2C)CC1 [Example 11, (S)-1-(4-(dimethylamino)piperidin-1-yl)-3-hydroxy-3-(1-methyl-1H-imidazol-2-yl)propan-1-one] | 3
2 | CN(C)C1CCN(C(=O)CCc2nccn2C)CC1 [Comparative Example 1, 1-(4-(dimethylamino)piperidin-1-yl)-3-(1-methyl-1H-imidazol-2-yl)propan-1-one hydrochloride] | 4
